Assay results from PMC5620620, “Comparison of In Vitro Assays in Selecting Radiotracers for In Vivo P-Glycoprotein PET Imaging” (Pharmaceuticals, 2017).

Legend:
[1] = Radioactive metabolites in plasma and brain by radio-TLC; assay type: in vivo; settings: mice, 45 min p.i.
Protocol: Mice were injected with radiotracers (3.5 ± 1.6 MBq, 0.1 mL, [^18F]MC198 or [^18F]KE64) in the penile vein under isoflurane anesthesia. Injections were performed with the mice in the microPET camera (microPET Focus 220, Siemens Medical Solutions, Malvern, PA, USA), simultaneously starting a 30 min dynamic emission scan. After each emission scan, a transmission scan of 515 s with a ^57Co point source was performed to correct the emission data for attenuation and scatter. Mice were terminated by cervical dislocation. Several organs and tissues were excised, weighed and radioactivity was measured in a γ-counter (LKB Wallac, Turku, Finland). Radioactivity accumulation in the organs was expressed as SUV, using the following formula: [tissue activity concentration (MBq/g)]/[injected dose (MBq)/body weight (g)]. Metabolites in the terminal plasma and brain samples were determined using a radio-TLC method described elsewhere. TLC-plates were eluted with ethylacetate/methanol 9:1 v/v (Rf [^18F]MC198 = 0.45, Rf[^18F]KE64 = 0.62). PET data were reconstructed as described previously. Inveon Research Workplace software version 4.0 (Siemens, Erlangen, Germany) was used for data analysis. All frames were summed, and PET images were co-registered with an MRI template. […] Radioactivity concentrations were converted to SUV values and plotted as time-activity curves (TAC).

P-gp [2] = molecular target: T1, P-gp (Homo sapiens, UniProt P08183); assay: Calcein-AM inhibition assay in MDCKII-MDR1 cells; assay type: cell-based; settings: non-radioactive compounds
T1 construct: host or cells: MDCKII (canine kidney) cells transfected with human MDR1 cDNA
T1 sequence (P08183 whole entry): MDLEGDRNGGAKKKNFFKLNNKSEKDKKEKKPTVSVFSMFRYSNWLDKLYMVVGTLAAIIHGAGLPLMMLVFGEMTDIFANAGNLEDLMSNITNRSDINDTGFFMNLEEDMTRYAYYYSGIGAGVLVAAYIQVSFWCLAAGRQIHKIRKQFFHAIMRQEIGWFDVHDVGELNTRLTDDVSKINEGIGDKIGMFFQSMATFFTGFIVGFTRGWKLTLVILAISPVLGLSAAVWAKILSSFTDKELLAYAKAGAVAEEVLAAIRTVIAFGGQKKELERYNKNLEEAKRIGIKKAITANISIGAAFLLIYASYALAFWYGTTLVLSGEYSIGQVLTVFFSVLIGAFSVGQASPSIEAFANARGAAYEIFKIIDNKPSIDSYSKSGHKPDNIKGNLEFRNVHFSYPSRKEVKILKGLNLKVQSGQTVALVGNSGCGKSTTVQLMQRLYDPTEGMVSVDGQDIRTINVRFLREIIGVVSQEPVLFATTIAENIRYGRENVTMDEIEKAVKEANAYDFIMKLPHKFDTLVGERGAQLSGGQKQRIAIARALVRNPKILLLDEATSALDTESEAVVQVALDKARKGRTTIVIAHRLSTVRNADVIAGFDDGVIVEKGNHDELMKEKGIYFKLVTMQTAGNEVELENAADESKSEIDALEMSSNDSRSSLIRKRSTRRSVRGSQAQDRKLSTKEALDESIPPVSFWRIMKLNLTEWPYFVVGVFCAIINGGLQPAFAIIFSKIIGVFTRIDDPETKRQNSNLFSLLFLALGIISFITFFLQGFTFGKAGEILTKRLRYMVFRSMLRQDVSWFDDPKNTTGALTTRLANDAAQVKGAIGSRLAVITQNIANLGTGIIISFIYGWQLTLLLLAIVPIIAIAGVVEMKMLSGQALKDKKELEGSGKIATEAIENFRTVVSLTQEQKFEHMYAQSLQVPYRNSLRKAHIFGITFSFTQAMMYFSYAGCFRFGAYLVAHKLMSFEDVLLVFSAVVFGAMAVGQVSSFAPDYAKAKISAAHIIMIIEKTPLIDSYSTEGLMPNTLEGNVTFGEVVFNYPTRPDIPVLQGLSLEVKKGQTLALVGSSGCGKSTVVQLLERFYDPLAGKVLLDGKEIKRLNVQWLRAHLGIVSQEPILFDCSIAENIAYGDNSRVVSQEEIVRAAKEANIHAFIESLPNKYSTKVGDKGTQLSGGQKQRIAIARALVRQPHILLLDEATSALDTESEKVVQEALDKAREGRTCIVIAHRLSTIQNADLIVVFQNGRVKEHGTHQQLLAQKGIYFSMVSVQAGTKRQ
Protocol: The calcein-AM experiment was performed in MDCKII-MDR1 cells according to methods described previously. Calcein cell accumulation in the absence and in the presence of test compounds (0,1, 1, 10, 30, 50 and 100 µM) was evaluated and the basal level of fluorescence was measured in untreated cells. EC50 values were determined by fitting the fluorescence increase (in %) versus log[dose].

P-gp [3] = molecular target: T1, P-gp; assay: Bidirectional transport of tritiated compounds in MDCKII-MDR1 cells; assay type: in vitro ADME; settings: MDCKII-MDR1 cells
Protocol: (§1) Madin-Darby canine kidney (MDCK) II cells expressing cDNAs encoding human MDR1 (MDCKII-MDR1 cells) were obtained by TNO from the Netherlands Cancer Institute. […] Cells were counted using an automatic cell counter (Millipore, Bedford, MA, USA). […] The medium was refreshed after 48 h. It has been shown, that under these conditions the human transporter protein MDR1 localizes on the apical plasma membrane of the cells.
(§2) After three days of cell culture on Transwell, the MDCKII-MDR1 monolayers are expected to have developed a transepithelial electrical resistance (TEER) of approximately 70 Ωcm^2 higher than background (empty filter without cells). At the start of each study, TEER was measured to assess the integrity of the monolayers of MDCKII-MDR1 cells in culture medium using the Millicell-ERS epithelial voltohmmeter (Millipore). Monolayers with a TEER value less than 55 Ωcm^2 above background (empty filter) were excluded from the transport assay. […] Cell monolayers were also inspected with a microscope before starting the experiments.
(§3) Transcellular transport studies were performed as described previously with minor modifications.
(§4) After the integrity assessment, culture medium was removed from the filter inserts (apical compartment (A)). The inserts were washed once with warm (37 °C) HBSS, transferred to new 12-well plates which were preincubated with HBSS/HEPES for 18 h at 37 °C, to reduce non-specific binding to the plastic, and washed with warm HBSS. The MDR1-mediated apical to basolateral (A → B) transport in MDCKII-MDR1 cell monolayers was determined by addition of 0.65 mL of a tritiated compound in concentrations of 0.01, 1 and 50 µM to the apical compartment in triplicate. A volume of 1.8 mL of HBSS/HEPES was added to the basolateral compartment. To determine basolateral to apical (B → A) transport, 1.95 mL of a tritiated compound at concentrations of 0.01, 1 and 50 µM was added to the basolateral compartment and 0.5 ml of HBSS/HEPES to the apical compartment. A 150 µL aliquot of the apical (A → B) or basolateral (B → A) compartment was taken at the start of the experiment to measure the initial concentration and to calculate the recovery of radioactivity. […] Aliquots of the apical and basolateral samples (150 and 1600 µL for A → B and 400 and 150 µL for B → A, respectively) and samples of the initial concentration were mixed with 10 mL of liquid scintillant Ultima GoldTM (PerkinElmer Inc.). Radioactivity was determined by LSC on a Tri Carb 3100TR liquid scintillation counter using QuantaSmart^TM software (PerkinElmer Inc.) in which all counts were converted to disintegrations per minute (DPM) using tSIE/AEC (transformed spectral index of external standards coupled to automatic efficiency correction). Background values were measured for each sample sequence using liquid scintillant without test samples. Recovery of radioactivity was calculated as percentage of measured total radioactivity after the experiment versus initial radioactivity.
(§5) Subsequently, the effects of MDR1-inhibitors ketoconazole and tariquidar on the bidirectional transport of the tested tritiated compounds were examined. Stock solutions of the inhibitors ketoconazole (10 mM) and tariquidar (10 mM) were prepared in DMSO. […] These concentrations were based on IC50 values that are known to block P-gp completely.
(§6) A is the surface area of the filter insert (cm^2) and C0 the measured initial concentration, calculated from total DPM on the donor side at t = 0 min (DPM/L).
(§7) To determine the ER for the test compounds, the following equation was used:ER = Papp B → A/Papp A → B(2)

P-gp (MDR1) = molecular target: T2, P-gp (MDR1) (Homo sapiens, UniProt P08183); assay: as above; assay type: in vitro ADME; settings: MDCK-MDR1; for efflux ratio at 2 h, 0.01 µM: human, read-out: ER 0.01 µM
T2 construct: host or cells: MDCKII (canine kidney) cells transfected with human MDR1 cDNA
T2 sequence (P08183 whole entry): as above
Protocol: as §1, §2, §3, §4, §5, §6, §7

P-gp and/or Bcrp = assay: Brain uptake (microPET, biodistribution) in Mdr1a/b(−/−)Bcrp1(−/−) knockout versus wild-type mice; assay type: in vivo; settings: Mdr1a/b(−/−)Bcrp1(−/−) vs wild-type mice; for Difference in whole brain time-activity curves (SUV) between knockout and wild-type: AUC from 0 to 30 min; for P-gp substrate behaviour in vivo: tracer concentrations
From the text: All animal studies were in compliance with the local ethical guidelines. Protocols (DEC 6456C) were approved by the Institutional Animal Care and Use Committee of the University of Groningen. Male FVB wild type mice (33 ± 2 g, 11–12 weeks) and Mdr1a/b^(−/−)Bcrp1^(−/−) constitutive knockout mice (31 ± 3 g, 11–12 weeks) developed from the FVB line were purchased from Taconic (Hudson, NY, USA). After arrival, animals were housed individually and acclimatized for at least 7 days in the Central Animal Facility of the University Medical Center Groningen before experiments. Mice had access to food and water ad libitum and were kept under a 12 h light-dark cycle. During experiments, mice were anesthetized with 2% isoflurane in medical air and kept at a constant temperature using electronically controlled heating pads.
Mice were injected with radiotracers (3.5 ± 1.6 MBq, 0.1 mL, [^18F]MC198 or [^18F]KE64) in the penile vein under isoflurane anesthesia. Injections were performed with the mice in the microPET camera (microPET Focus 220, Siemens Medical Solutions, Malvern, PA, USA), simultaneously starting a 30 min dynamic emission scan. After each emission scan, a transmission scan of 515 s with a ^57Co point source was performed to correct the emission data for attenuation and scatter. Mice were terminated by cervical dislocation. Several organs and tissues were excised, weighed and radioactivity was measured in a γ-counter (LKB Wallac, Turku, Finland). Radioactivity accumulation in the organs was expressed as SUV, using the following formula: [tissue activity concentration (MBq/g)]/[injected dose (MBq)/body weight (g)]. Metabolites in the terminal plasma and brain samples were determined using a radio-TLC method described elsewhere. TLC-plates were eluted with ethylacetate/methanol 9:1 v/v (Rf [^18F]MC198 = 0.45, Rf[^18F]KE64 = 0.62). PET data were reconstructed as described previously. Inveon Research Workplace software version 4.0 (Siemens, Erlangen, Germany) was used for data analysis. All frames were summed, and PET images were co-registered with an MRI template. A whole brain volume of interest (VOI) based on the MRI template was generated. Radioactivity concentrations were converted to SUV values and plotted as time-activity curves (TAC).

P-gp [4] = assay: In vivo P-gp substrate classification from knockout mice and/or tariquidar-treated rats; settings: for Substrate In Vivo: brain-to-plasma or AUC ratio in at least one strain; for P-gp substrate classification in vivo: cutoff value of 2 for brain-to-plasma and AUC ratios
Log D7.4 = assay type: physicochemical; settings: pH 7.4, this study
[5] = parameters: method as in PMID 26043236; settings: pH 7.4; cited from earlier work

Fraction of intact parent compound in plasma [1] [%]	EC50 (P-gp [2]) [nM]	Papp values in both directions (A → B and B → A) (P-gp [3]; all Papp values) [×10⁻⁶ cm/s]	efflux ratio at 2 h, 0.01 µM (P-gp (MDR1))	Difference in whole brain time-activity curves (SUV) between knockout and wild-type (P-gp and/or Bcrp) [fold]	P-gp substrate behaviour in vivo (P-gp and/or Bcrp)	P-gp substrate behaviour in vivo (P-gp and/or Bcrp; listed as [^18F]KE64)	P-gp substrate classification in vivo (P-gp [4])	logD (Log D7.4)	ER 0.01 µM (P-gp [3]; tritiated compound 0.01 µM, Papp B→A/Papp A→B)	efflux ratio at 2 h, 1 µM (P-gp (MDR1); dog, MDCKII-MDR1 cells, 1 µM, read-out: ER)	efflux ratio at 2 h, 50 µM (P-gp (MDR1); dog, MDCKII-MDR1 cells, 50 µM, read-out: ER)	SMILES	Substrate In Vivo (P-gp [4])	Substrate In Vitro (P-gp [3]; ER 0.01 µM)	P-gp substrate behaviour in vitro (P-gp [3]; concentrations 0.01-50 µM and inhibitors)	Log D7.4 [5]
26	14	< 3	1.9	1.6	moderate P-gp substrate in vivo	substrates for P-gp and/or Bcrp in vivo	weak substrates	3.2	–	–	–	COc1cc2c(cc1OC)CN(CCCCOc1ccc(-c3ccc(OCCF)cc3)cc1)CC2 [KE64, 2-(4-(4′-(2-Fluoroethoxy)biphenyl-4-yloxy)butyl)-6,7-dimethoxy-1,2,3,4-tetrahydroisoquinoline]	+ (in vivo brain-to-plasma or AUC ratio > 2 in at least one strain)	–	–	–
34	270	–	2.1	1.7	substrates for P-gp and/or Bcrp in vivo	–	weak substrates	2.3	above 2	< 2	< 2	COc1cc2c(cc1OC)CN(CC/C=C1\CCCc3c(OCCF)cccc31)CC2 [MC198, (E)-2-(3-(5-(2-Fluoroethoxy)-3,4-dihydronaphthalen-1(2H)-ylidene)propyl)-6,7-dimethoxy-1,2,3,4-tetra-hydroisoquinoline]	+ (in vivo brain-to-plasma or AUC ratio > 2 in at least one strain)	+ (Definition as substrate (+) in vitro was ER > 2)	some affinity but very low capacity for P-gp mediated transport	–
–	–	–	–	–	–	–	–	–	–	–	–	COc1cc2c(cc1OC)CN(Cc1ccc(-c3ccc(OCCF)cc3)cc1)CC2 [MC224]	–	–	–	2.9
